Holding throughout (format): cell-based
The target of data set [1] is T1, Nuclear factor erythroid 2-related factor 2 (Homo sapiens) (UniProt Q16236).
T1 sequence (whole entry): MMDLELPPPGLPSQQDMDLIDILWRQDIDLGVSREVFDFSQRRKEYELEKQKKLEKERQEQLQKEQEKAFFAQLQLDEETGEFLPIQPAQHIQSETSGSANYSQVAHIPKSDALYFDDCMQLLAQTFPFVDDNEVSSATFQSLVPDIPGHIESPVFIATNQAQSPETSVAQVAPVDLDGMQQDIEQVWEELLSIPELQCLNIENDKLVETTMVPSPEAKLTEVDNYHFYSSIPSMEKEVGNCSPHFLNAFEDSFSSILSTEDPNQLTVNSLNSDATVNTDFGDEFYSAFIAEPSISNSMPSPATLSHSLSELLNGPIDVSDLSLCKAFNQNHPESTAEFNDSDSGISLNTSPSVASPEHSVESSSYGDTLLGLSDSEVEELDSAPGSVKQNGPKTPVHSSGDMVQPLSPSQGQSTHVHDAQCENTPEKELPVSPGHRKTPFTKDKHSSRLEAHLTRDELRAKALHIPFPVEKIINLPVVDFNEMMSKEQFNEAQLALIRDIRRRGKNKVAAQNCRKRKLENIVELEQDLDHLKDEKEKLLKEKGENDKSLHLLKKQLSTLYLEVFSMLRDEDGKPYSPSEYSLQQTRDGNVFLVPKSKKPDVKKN
The data set is described as follows: Activation of Nrf2 in human HCT116 cells assessed as upregulation of GCLM gene expression at 40 uM measured at 4 hrs by qRT-PCR analysis relative to control. The following applies: HCT-116.

Data set [2] addresses T1, Nuclear factor erythroid 2-related factor 2 (Homo sapiens). Description: Activation of Nrf2 in human HCT116 cells assessed as upregulation of HO-1 gene expression at 40 uM measured at 4 hrs by qRT-PCR analysis relative to control. As to conditions: HCT-116. Background: In qPCR the cycle at which signal appears reflects the starting amount.
Data set [3] shares this target. Description: Activation of Nrf2 in human HepG2-ARE-C8 cells assessed as upregulation of ARE level at 40 uM after 12 hrs by luciferase reporter gene assay relative to control. Background: A reporter such as luciferase makes a cellular process visible.
Data set [4] shares this target. Description: Activation of Nrf2 in human HCT116 cells assessed as upregulation of HO-1 gene expression at 10 uM measured at 6 hrs by qRT-PCR analysis relative to control. As to conditions: HCT-116.
For data set [5] the target is unchanged. Description: Activation of Nrf2 in human HCT116 cells assessed as upregulation of GCLM gene expression measured at 4 hrs by qRT-PCR analysis. As to conditions: HCT-116.
Data set [6] has the same target. Description: Activation of Nrf2 in human HCT116 cells assessed as upregulation of HO-1 gene expression measured at 4 hrs by qRT-PCR analysis. The following applies: HCT-116.
Data set [7] shares this target. Description: Activation of Nrf2 in human HCT116 cells after 6 hrs by Western blot analysis. The following applies: HCT-116. In general terms: A western blot detects proteins with antibodies after separation by electrophoresis.
For data set [8] the target is unchanged. The data set is described as follows: Activation of Nrf2 in human HCT116 cells at 40 uM measured at 4 hrs by qRT-PCR analysis relative to control. The following applies: HCT-116.
The target is the same in data set [9]. Description: Activation of Nrf2 in human HepG2-ARE-C8 cells assessed as upregulation of ARE level at 0.02 uM after 12 hrs by luciferase reporter gene assay relative to control.
Data set [10] shares this target. The data set is described as follows: Activation of Nrf2 in human HCT116 cells assessed as upregulation of GCLM gene expression at 10 uM measured at 6 hrs by qRT-PCR analysis relative to control. As to conditions: HCT-116.
For data set [11] the target is unchanged. The data set is described as follows: Activation of Nrf2 in human HepG2-ARE-C8 cells assessed as upregulation of ARE level at 20 uM after 12 hrs by luciferase reporter gene assay relative to control.
The target is the same in data set [12]. The data set is described as follows: Activation of Nrf2 in human HCT116 cells assessed as upregulation of HO-1 expression at 10 uM measured at 4 hrs by Western blot analysis. As to conditions: HCT-116.
Data set [13] shares this target. The data set is described as follows: Activation of Nrf2 in human HepG2-ARE-C8 cells assessed as upregulation of ARE level at 0.2 uM after 12 hrs by luciferase reporter gene assay relative to control.
A further data set relates to HCT-116. Description: Cytotoxicity against human HCT116 cells assessed as effect on cell proliferation at 5 to 80 uM after 24 hrs by MTT assay. The following applies: hct-116, 24 h.
Data set [14] has as its target T1, Nuclear factor erythroid 2-related factor 2 (Homo sapiens). Description: Activation of Nrf2 in human HCT116 cells at 10 uM after 2 hrs by Western blot analysis. The following applies: HCT-116.
Data set [15] has the same target. Description: Activation of Nrf2 in human HCT116 cells at 10 uM by qRT-PCR analysis. The following applies: HCT-116, TDE = time-dependent effect.
Data set [16] shares this target. Description: Activation of Nrf2 in human HepG2-ARE-C8 cells assessed as upregulation of ARE level at 80 uM after 12 hrs by luciferase reporter gene assay relative to control.
The target is the same in data set [17]. The data set is described as follows: Activation of Nrf2 in human HepG2-ARE-C8 cells assessed as upregulation of ARE level at 160 uM after 12 hrs by luciferase reporter gene assay relative to control.
For data set [18] the target is unchanged. The data set is described as follows: Activation of Nrf2 in human HCT116 cells assessed as upregulation of NQO1 expression after 6 hrs by Western blot analysis. As to conditions: HCT-116.
Data set [19] shares this target. The data set is described as follows: Activation of Nrf2 in human HepG2-ARE-C8 cells assessed as upregulation of ARE level at 2 uM after 12 hrs by luciferase reporter gene assay relative to control.
The target is the same in data set [20]. The data set is described as follows: Activation of Nrf2 in human HCT116 cells assessed as upregulation of NQO1 gene expression at 40 uM measured at 4 hrs by qRT-PCR analysis relative to control. As to conditions: HCT-116.
Data set [21] shares this target. The data set is described as follows: Activation of Nrf2 in human HCT116 cells at 10 uM measured at 4 hrs by qRT-PCR analysis relative to control. The following applies: HCT-116.
Data set [22] has the same target. Description: Activation of Nrf2 in human HCT116 cells assessed as upregulation of NQO1 gene expression at 10 uM measured over 1 to 24 hrs by qRT-PCR analysis relative to control. The following applies: HCT-116.
Data set [23] shares this target. The data set is described as follows: Activation of Nrf2 in human HCT116 cells measured at 4 hrs by qRT-PCR analysis. The following applies: HCT-116.

Active and inactive are the calls of the source. The rule behind the calls is not given here.

As for `Cn1cnc2ccc(-c3noc(-c4ccc5cc[nH]c5c4)n3)cc21`, the fold change (FC) in data set [1] is 3.8; in data set [2] it was 7; in data set [3] it was 12.4; in data set [4] it was 2.4; in data set [8] it was 3.4; in data set [9], 1.09. Also, the fold change (FC) was 2.5 in data set [10]; 7.61 in data set [11]; 1.5 in [13]; 12.1 in data set [16]; 8.73 in data set [17]; 3.35 in data set [19]. In addition, the values for the fold change (FC) in data set [20], in data set [21] and in data set [22] were 2, 5 and 1.5, respectively. Also, the Activity entry was “Dose-dependent effect” in data set [5]; “Dose-dependent effect” in data set [6]; “Dose-dependent effect” in [7]; “Non-toxic” in the data set on HCT-116; “tde” in data set [15]; “Dose-dependent effect” in data set [18]. Also, in [23], the Activity entry is “Dose-dependent effect”. The result in data set [12] and in data set [14] was Active.

The values above are taken from ChEMBL document CHEMBL3585308, “Discovery and Modification of in Vivo Active Nrf2 Activators with 1,2,4-Oxadiazole Core: Hits Identification and Structure-Activity Relationship Study” (J Med Chem, 2015).
